Drawing on PubChem BioAssay (NCI), this text covers TGI and GI50 for 20 molecules.

Each structure is given as a SMILES string.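 Where inhibition never reached the appropriate level, the endpoint shown equals the highest concentration tested. Otherwise, values were interpolated linearly from a five-concentration, 48-hour dose response in 96-well plates. GI50: concentration for 50% inhibition of growth. TGI denotes the concentration required for complete inhibition of growth.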

Test systems include EKVX NSCLC; NCI-H460 lung; RXF 393 renal; DU-145 prostate; SK-MEL-2 melanoma; SF-268 CNS; UO-31 renal; HL-60(TB) leukemia; RPMI-8226 leukemia; KM12 colon; NCI-H226 lung.
Assay in all cases: NCI tumour cell line growth inhibition, 48 h

Turning to `COc1cc(/C=C\c2ccc(SC)cc2)cc(OC)c1OC`, the TGI in the test with EKVX NSCLC was more than 100 µM; in the test on NCI-H460 lung, more than 49.3 µM; in the test with RXF 393 renal, 0.0402 µM; in the test with DU-145 prostate, more than 100 µM; in the test with SK-MEL-2 melanoma it was 0.841 µM; in the test with SF-268 CNS it was 56.1 µM. The TGI in the test with UO-31 renal was 45.3 µM; with HL-60(TB) leukemia it was 0.463 µM; in the test on RPMI-8226 leukemia, 25.2 µM; with KM12 colon, 2.8 µM.

Turning to `O=Cc1cc(O)c(O)c(O)c1-c1c(C=O)cc(O)c(O)c1O`, the TGI with EKVX NSCLC, in the test with NCI-H226 lung, in the test with NCI-H460 lung, in the test on SK-MEL-2 melanoma, with SF-268 CNS and in the test on UO-31 renal was more than 100 µM in each case. Moreover, the TGI with HL-60(TB) leukemia, in the test with RPMI-8226 leukemia and in the test with KM12 colon was more than 100 µM throughout.

As for `CC(C)(C)[C@@H]1NC(=O)CN1C(=O)OCc1ccccc1`, the TGI in the test on EKVX NSCLC, with NCI-H226 lung, in the test on NCI-H460 lung, in the test with RXF 393 renal, in the test with DU-145 prostate and in the test on SK-MEL-2 melanoma was more than 100 µM each time. Moreover, the TGI in the test on SF-268 CNS, with UO-31 renal, in the test on HL-60(TB) leukemia, in the test with RPMI-8226 leukemia and with KM12 colon was more than 100 µM in each case.

Regarding `O=C(/C=C1\N=C(c2ccccc2)N(c2ccc3c(c2)Sc2cc(N4C(=O)/C(=C/C(=O)/C=C/c5ccccc5)N=C4c4ccccc4)ccc2N3)C1=O)/C=C/c1ccccc1`, the TGI was more than 100 µM in the test with EKVX NSCLC; more than 100 µM in the test with NCI-H460 lung; more than 100 µM in the test on RXF 393 renal; more than 100 µM with DU-145 prostate; 38.2 µM with SK-MEL-2 melanoma; more than 100 µM with SF-268 CNS. Moreover, the TGI with UO-31 renal, in the test with HL-60(TB) leukemia, in the test with RPMI-8226 leukemia and with KM12 colon was more than 100 µM throughout.

On to `CC1OC(OP(=O)(OCc2ccccc2)OCc2ccccc2)C(OC(=O)c2ccccc2)C(OC(=O)c2ccccc2)C1I` (configuration not stated), for which the TGI is more than 100 µM in the test with EKVX NSCLC; more than 100 µM in the test with NCI-H460 lung; 76.9 µM in the test on RXF 393 renal; more than 100 µM with SK-MEL-2 melanoma; more than 100 µM with SF-268 CNS; more than 100 µM in the test on UO-31 renal. Moreover, the TGI in the test with HL-60(TB) leukemia is 49.4 µM; with RPMI-8226 leukemia, 97.8 µM; with KM12 colon it was more than 100 µM.

As to `CCC1OC2C(CC=C(C)C)=C3OC(C)(O)C(C)(CC)C(O)C3=C3OC(=O)C=C1C32` (configuration not stated), the TGI in the test on EKVX NSCLC is more than 100 µM; in the test with NCI-H226 lung it was more than 100 µM; in the test with NCI-H460 lung, 70.5 µM; in the test with DU-145 prostate it was more than 100 µM; with SK-MEL-2 melanoma it was 84.5 µM; in the test with SF-268 CNS, more than 100 µM. For the same molecule, the TGI with UO-31 renal, in the test with RPMI-8226 leukemia and in the test on KM12 colon was more than 100 µM in each case.

For the molecule `C=C1C(=O)O[C@H]2C1C[C@@H](O)[C@@]1(C)OC1CC[C@@]1(C)O[C@H]21` (some centres not stated), the TGI was 36 µM in the test with EKVX NSCLC; more than 100 µM in the test with NCI-H460 lung; 34.4 µM in the test with RXF 393 renal; more than 100 µM in the test with DU-145 prostate; 47.1 µM in the test on SK-MEL-2 melanoma; more than 100 µM in the test on SF-268 CNS. Also, the TGI is 32.5 µM in the test on UO-31 renal, 32.1 µM in the test on RPMI-8226 leukemia and 53.2 µM in the test on KM12 colon.

In the case of `COc1ccc(NS(=O)C2CCCCC2)cc1` (configuration not stated), the TGI in the test on EKVX NSCLC, in the test on NCI-H226 lung, in the test on NCI-H460 lung, in the test on RXF 393 renal, in the test on DU-145 prostate and with SF-268 CNS was more than 100 µM in each case. The TGI with UO-31 renal, in the test on HL-60(TB) leukemia, in the test on RPMI-8226 leukemia and in the test with KM12 colon was more than 100 µM throughout.

On to `CCOC(=O)c1ccc(N=C/C=C(\Nc2ccc(C(=O)OCC)cc2)c2ccc3ccccc3c2)cc1`, for which the TGI in the test with NCI-H226 lung was 96.9 µM; in the test on NCI-H460 lung, more than 100 µM; in the test on RXF 393 renal it was 57.3 µM; in the test on DU-145 prostate, more than 100 µM; in the test on SK-MEL-2 melanoma, 66.9 µM; in the test on SF-268 CNS, more than 100 µM. The TGI is more than 100 µM in the test with UO-31 renal, 70.8 µM in the test with HL-60(TB) leukemia, 52.1 µM with RPMI-8226 leukemia and 48.2 µM with KM12 colon.

Consider `CC(C)C[C@H](NC(=O)[C@@H](Cc1cccc2ccccc12)NC(=O)N1CCOCC1)B(O)O`, for which the TGI in the test on EKVX NSCLC was 47.6 µM; with NCI-H226 lung, 3.2 µM; with NCI-H460 lung, 40.6 µM; in the test on RXF 393 renal, 6.8 µM; in the test on DU-145 prostate, 29.7 µM; with SK-MEL-2 melanoma, 13.1 µM. In addition, the TGI in the test with SF-268 CNS is 15.1 µM; in the test with UO-31 renal, 41.5 µM; in the test on HL-60(TB) leukemia, more than 24.6 µM; in the test with RPMI-8226 leukemia, 17.4 µM; in the test with KM12 colon, 20 µM.

As for `C[Si](C)(C)C#C[I+]c1ccccc1`, the TGI in the test with EKVX NSCLC, in the test on NCI-H226 lung, in the test on NCI-H460 lung, in the test with RXF 393 renal, in the test on SK-MEL-2 melanoma and in the test on SF-268 CNS was more than 100 µM in each case. Also, the TGI in the test on UO-31 renal is more than 100 µM; in the test on HL-60(TB) leukemia it was 61.3 µM; in the test with KM12 colon, more than 100 µM.

For `CCOC(=O)c1c(OCC)[nH]c(=O)c(C(c2ccc(F)cc2)c2c(O)c(C(=O)OCC)c(OCC)[nH]c2=O)c1O`, the TGI in the test on EKVX NSCLC came to 33.2 µM; in the test with NCI-H226 lung, 26.1 µM; in the test with NCI-H460 lung it was 36.5 µM; in the test with RXF 393 renal, 23 µM; with DU-145 prostate it was 24.3 µM; in the test on SK-MEL-2 melanoma, 37 µM. For the same molecule, the TGI was determined as 33.6 µM with SF-268 CNS; 25.7 µM in the test on UO-31 renal; 54.3 µM in the test on HL-60(TB) leukemia; 58.3 µM with RPMI-8226 leukemia; 37.7 µM with KM12 colon.

On to `N#Cc1nn(-c2ccc(Cl)cc2)c(N)c2c(=N)n3nc(-c4ccccc4)cc3nc12`, for which the TGI is more than 100 µM with EKVX NSCLC; more than 100 µM with NCI-H226 lung; more than 92.3 µM in the test on NCI-H460 lung; 76.8 µM with RXF 393 renal; more than 20.7 µM in the test with SK-MEL-2 melanoma; 98.5 µM with UO-31 renal. Also, the TGI in the test on HL-60(TB) leukemia and in the test on KM12 colon was more than 100 µM throughout. The GI50 with UO-31 renal was 31.5 µM.

`CC(=O)c1nc2ccccc2n1CC(=O)c1ccc([N+](=O)[O-])cc1`: the TGI was more than 100 µM in the test with EKVX NSCLC; 57.9 µM in the test with NCI-H226 lung; 68.6 µM in the test with NCI-H460 lung; more than 100 µM in the test on RXF 393 renal; more than 100 µM in the test with DU-145 prostate; more than 100 µM with SF-268 CNS. Also, the TGI with UO-31 renal is 45.9 µM; in the test on HL-60(TB) leukemia, more than 100 µM; in the test with RPMI-8226 leukemia it was more than 100 µM; in the test on KM12 colon it was 47.3 µM.

For the molecule `Cc1c(Cl)cccc1NC(=O)C(=O)C1C(=O)NC(=O)NC1=O`, the TGI with EKVX NSCLC, with NCI-H226 lung, with NCI-H460 lung, in the test with RXF 393 renal, in the test on SK-MEL-2 melanoma and with SF-268 CNS was more than 100 µM in each case. The TGI in the test with UO-31 renal, in the test on HL-60(TB) leukemia, with RPMI-8226 leukemia and with KM12 colon was more than 100 µM in each case.

Regarding `CC(=O)OC(C)(C)C1CCC(C)(C(O)COc2ccc(CCNC(=O)c3ccccc3)cc2)O1` (configuration not stated), the TGI with NCI-H460 lung was more than 100 µM; in the test on RXF 393 renal, more than 100 µM; in the test on SK-MEL-2 melanoma it was more than 100 µM; in the test on SF-268 CNS, more than 100 µM; in the test on UO-31 renal, more than 100 µM; in the test with HL-60(TB) leukemia, 67.8 µM. The TGI in the test on RPMI-8226 leukemia and with KM12 colon was more than 100 µM throughout.

Consider `CC(=O)OC1COC(N2C(=O)C(=O)c3cc(Br)c([N+](=O)[O-])cc32)C(OC(C)=O)C1OC(C)=O` (configuration not stated), for which the TGI in the test with EKVX NSCLC is more than 100 µM; in the test on NCI-H226 lung it was more than 100 µM; in the test with NCI-H460 lung, more than 100 µM; in the test with RXF 393 renal it was 82.3 µM; with SK-MEL-2 melanoma, more than 100 µM; with SF-268 CNS it was more than 100 µM. The TGI with HL-60(TB) leukemia, in the test on RPMI-8226 leukemia and in the test with KM12 colon was more than 100 µM throughout.

Consider `C[C@H](NC(=O)OC1C2C=CC(O)C1CC2)c1ccccc1` (some centres not stated), for which the TGI with EKVX NSCLC, in the test with NCI-H226 lung, in the test on NCI-H460 lung, in the test on RXF 393 renal, in the test on SK-MEL-2 melanoma and in the test with SF-268 CNS was more than 100 µM each time. The TGI in the test on UO-31 renal was more than 100 µM; in the test with HL-60(TB) leukemia it was more than 100 µM; in the test with RPMI-8226 leukemia, 48.6 µM; in the test on KM12 colon it was more than 100 µM.

Turning to `CC1(C)COC(c2cccc(C3=NC(C)(C)CO3)c2)=N1`, the TGI in the test on EKVX NSCLC, in the test with NCI-H226 lung, in the test on NCI-H460 lung, with DU-145 prostate, in the test on SK-MEL-2 melanoma and in the test on SF-268 CNS was more than 100 µM throughout. Also, the TGI in the test on UO-31 renal, in the test on RPMI-8226 leukemia and in the test with KM12 colon was more than 100 µM throughout.

As to `OC(Cn1cncn1)(Cn1cncn1)c1ccc(Cl)cc1Cl`, the TGI in the test on NCI-H226 lung, in the test on NCI-H460 lung, in the test on RXF 393 renal, in the test on SK-MEL-2 melanoma, in the test on SF-268 CNS and in the test on UO-31 renal was more than 100 µM throughout. Further, the TGI in the test with HL-60(TB) leukemia, with RPMI-8226 leukemia and with KM12 colon was more than 100 µM each time.
